Measured values taken from ChEMBL document CHEMBL3784933, “Synthesis and antitumor evaluation of trimethoxyanilides based on 4(3H)-quinazolinone scaffolds” (2016).

Tests used:
Assay type in all cases: functional
[1] = tested on: M14; assay: Cytotoxicity against human M14 cells assessed as growth inhibition at 10 uM after 48 hrs by SRB assay; settings: M14, 48 h, read-out: GI
[2] = Cytotoxicity against human UO31 cells assessed as growth inhibition at 10 uM after 48 hrs by SRB assay; settings: UO-31, 48 h, read-out: GI
[3] = tested on: SN12C; assay: Cytotoxicity against human SN12C cells assessed as growth inhibition at 10 uM after 48 hrs by SRB assay; settings: read-out: GI
[4] = Cytotoxicity against human SNB19 cells assessed as growth inhibition at 10 uM after 48 hrs by SRB assay; settings: SNB-19, 48 h, read-out: GI
[5] = tested on: Malme-3M; assay: Cytotoxicity against human MALME-3M cells assessed as growth inhibition at 10 uM after 48 hrs by SRB assay; settings: read-out: GI
[6] = Cytotoxicity against human SF539 cells assessed as growth inhibition at 10 uM after 48 hrs by SRB assay; settings: SF-539, 48 h, read-out: GI
[7] = tested on: T47D; assay: Cytotoxicity against human T47D cells assessed as growth inhibition at 10 uM after 48 hrs by SRB assay; settings: read-out: GI
[8] = tested on: MDA-MB-231; assay: Cytotoxicity against human MDA-MB-231 cells assessed as growth inhibition at 10 uM after 48 hrs by SRB assay; settings: MDA-MB-231, 48 h, read-out: GI
[9] = Cytotoxicity against human SKOV3 cells assessed as growth inhibition at 10 uM after 48 hrs by SRB assay; settings: SK-OV-3, 48 h, read-out: GI
[10] = tested on: A498; assay: Cytotoxicity against human A498 cells assessed as growth inhibition at 10 uM after 48 hrs by SRB assay; settings: A498, 48 h, read-out: GI
[11] = Cytotoxicity against human SNB75 cells assessed as growth inhibition at 10 uM after 48 hrs by SRB assay; settings: SNB-75, 48 h, read-out: GI
[12] = tested on: U-251; assay: Cytotoxicity against human U251 cells assessed as growth inhibition at 10 uM after 48 hrs by SRB assay; settings: U-251, 48 h, read-out: GI
[13] = tested on: SK-MEL-5; assay: Cytotoxicity against human SK-MEL-5 cells assessed as growth inhibition at 10 uM after 48 hrs by SRB assay; settings: SK-MEL-5, 48 h, read-out: GI
[14] = Cytotoxicity against human UACC62 cells assessed as growth inhibition at 10 uM after 48 hrs by SRB assay; settings: UACC-62, 48 h, read-out: GI
[15] = tested on: NCI-H522; assay: Cytotoxicity against human NCI-H522 cells assessed as growth inhibition at 10 uM after 48 hrs by SRB assay; settings: NCI-H522, 48 h, read-out: GI
[16] = Cytotoxicity against human SF268 cells assessed as growth inhibition at 10 uM after 48 hrs by SRB assay; settings: SF-268, 48 h, read-out: GI
[17] = Cytotoxicity against human Hs 578T cells assessed as growth inhibition at 10 uM after 48 hrs by SRB assay; settings: read-out: GI
[18] = tested on: A549; assay: Cytotoxicity against human A549 cells assessed as growth inhibition at 10 uM after 48 hrs by SRB assay; settings: A549, 48 h, read-out: GI
[19] = tested on: SK-MEL-2; assay: Cytotoxicity against human SK-MEL-2 cells assessed as growth inhibition at 10 uM after 48 hrs by SRB assay; settings: SK-MEL-2, 48 h, read-out: GI
[20] = Cytotoxicity against human UACC257 cells assessed as growth inhibition at 10 uM after 48 hrs by SRB assay; settings: UACC-257, 48 h, read-out: GI
[21] = Cytotoxicity against human PC3 cells assessed as growth inhibition at 10 uM after 48 hrs by SRB assay; settings: PC-3, 48 h, read-out: GI
[22] = Cytotoxicity against human OVCAR8 cells assessed as growth inhibition at 10 uM after 48 hrs by SRB assay; settings: OVCAR-8, 48 h, read-out: GI
[23] = Cytotoxicity against human HOP92 cells assessed as growth inhibition at 10 uM after 48 hrs by SRB assay; settings: HOP-92, 48 h, read-out: GI
[24] = Cytotoxicity against human OVCAR3 cells assessed as growth inhibition at 10 uM after 48 hrs by SRB assay; settings: OVCAR-3, 48 h, read-out: GI
[25] = Cytotoxicity against human SF295 cells assessed as growth inhibition at 10 uM after 48 hrs by SRB assay; settings: SF-295, 48 h, read-out: GI
[26] = Cytotoxicity against human NCI-ADR-RES cells assessed as growth inhibition at 10 uM after 48 hrs by SRB assay; settings: read-out: GI
[27] = Cytotoxicity against human BT549 cells assessed as growth inhibition at 10 uM after 48 hrs by SRB assay; settings: BT-549, 48 h, read-out: GI
[28] = tested on: CCRF-CEM; assay: Cytotoxicity against human CCRF-CEM cells assessed as growth inhibition at 10 uM after 48 hrs by SRB assay; settings: read-out: GI

COc1cc2nc(SCC(=O)Nc3cc(OC)c(OC)c(OC)c3)n(-c3ccccc3)c(=O)c2cc1OC
inhibition of growth at 10 µM [1]: 15%
inhibition of growth at 10 µM [2]: 34%
inhibition of growth at 10 µM [3]: 11%
inhibition of growth at 10 µM [4]: 17%
inhibition of growth at 10 µM [5]: 20%
inhibition of growth at 10 µM [6]: 17%
inhibition of growth at 10 µM [7]: 15%
inhibition of growth at 10 µM [8]: 16%
inhibition of growth at 10 µM [9]: 12%
inhibition of growth at 10 µM [10]: 28%
inhibition of growth at 10 µM [11]: 20%
inhibition of growth at 10 µM [12]: 30%
inhibition of growth at 10 µM [13]: 10%
inhibition of growth at 10 µM [14]: 19%
inhibition of growth at 10 µM [15]: 52%
inhibition of growth at 10 µM [16]: 19%
inhibition of growth at 10 µM [17]: 34%
inhibition of growth at 10 µM [18]: 14%
inhibition of growth at 10 µM [19]: 22%
inhibition of growth at 10 µM [20]: 26%
inhibition of growth at 10 µM [21]: 17%
inhibition of growth at 10 µM [22]: 40%
inhibition of growth at 10 µM [23]: 32%
inhibition of growth at 10 µM [24]: 12%
inhibition of growth at 10 µM [25]: 11%
inhibition of growth at 10 µM [26]: 10%
inhibition of growth at 10 µM [27]: 13%
inhibition of growth at 10 µM [28]: 18%
